Assay results as given in US20130184257A1, “PIPERIDINYL-SUBSTITUTED LACTAMS AS GPR119 MODULATORS” (priority 2010, published 2013).

Test system: modified version of the GPR119 receptor (94% identity to human receptor) stably expressed in HEK-293 cells
Assay: cAMP Production Assay (LANCE cAMP kit, TR-FRET)
Type: cell-based
Details: for cAMP production in HEK-293 cells: HEK-293 cells expressing modified GPR119, test compounds 0.2 nM to 10 μM, one-hour incubation at ambient temperature; for Fold over baseline: increase in cAMP relative to basal levels, 1.5-fold or greater = agonist activity
Experimental: The assay utilized HEK-293 cells that stably express a modified version of the GPR119 receptor (94% identity to human receptor), under the control of a CMV promoter containing a tet-on element for tetracycline-inducible expression. GPR119 agonist-induced cyclic AMP (cAMP) production was measured in this cell line using the LANCE cAMP kit (Perkin Elmer, Waltham, Mass.). To generate a working stock of cells for the assay, cells were treated overnight with 1 μg/mL doxycycline at 37° C. in the presence of 5% CO2 to induce receptor expression. Cells were then harvested by enzymatic dissociation with 0.05% trypsin, resuspended in freezing medium (DMEM growth medium with 10% each of fetal bovine serum and DMSO), aliquoted and frozen at −80° C. On the day of the assay, frozen cells were thawed, washed 1× in PBS and resuspended in Hank's buffered salt solution (HBSS) containing 5 mM HEPES, 0.1% BSA and Alexa Fluor 647-conjugated anti-cAMP antibody (diluted 1:100). The cell suspension was then transferred to a Proxiplate Plus white 384-well assay plate (Perkin-Elmer) at 2000 cells/well. Test compounds at final concentrations ranging from 0.2 nM to 10 μM were added to the assay plate, followed by a one-hour incubation at ambient temperature (volume=10 μL/well). DMSO concentration was held constant at 0.5%. After incubation with test compounds, 10 μL of a detergent buffer containing a biotinylated cAMP/Europium-conjugated streptavidin complex (Europium-labeled cAMP tracer) were added to each well on the assay plate, followed by a 2-hour incubation at ambient temperature. During this incubation cAMP released from lysed cells competes with the Europium-labeled cAMP tracer for binding to the Alexa Fluor 647-conjugated antibody. […] Cellular cAMP levels were then determined by interpolation of raw signal data using a cAMP standard curve. Compounds were determined to have agonist activity if they stimulated a 1.5-fold or greater increase in cAMP relative to basal levels.

SMILES: CC(C)c1nc(N2CCC(N3CCC[C@H](Nc4c(F)cc(S(C)(=O)=O)cc4F)C3=O)CC2)no1 [Example 12, (S)-3-(2,6-difluoro-4-(methylsulfonyl)phenylamino)-1′-(5-isopropyl-1,2,4-oxadiazol-3-yl)-1,4′-bipiperidin-2-one]
- cAMP production in HEK-293 cells: 16.1 nmol
- Fold over baseline: 3.4

SMILES: CS(=O)(=O)c1cc(F)c(N[C@H]2CCN(C3CCN(c4noc(C(F)(F)F)n4)CC3)C2=O)cc1F [Example 23, (S)-3-(2,5-difluoro-4-(methylsulfonyl)phenylamino)-1-(1-(5-(trifluoromethyl)-1,2,4-oxadiazol-3-yl)piperidin-4-yl)pyrrolidin-2-one]
- cAMP production in HEK-293 cells: 19.2 nmol
- Fold over baseline: 3.6

SMILES: CC(C)c1nc(N2CCC(N3CC[C@H](Oc4cc(F)c(S(C)(=O)=O)cc4F)C3=O)CC2)no1 [Example 19, (S)-3-(2,5-difluoro-4-(methylsulfonyl)phenoxy)-1-(1-(5-isopropyl-1,2,4-oxadiazol-3-yl)piperidin-4-yl)pyrrolidin-2-one]
- cAMP production in HEK-293 cells: 24.9 nmol
- Fold over baseline: 4.1

SMILES: CC(F)(F)c1nc(N2CCC(N3CCC[C@H](Oc4cc(F)c(S(C)(=O)=O)cc4F)C3=O)CC2)no1 [Example 55, (S)-3-(2,5-difluoro-4-(methylsulfonyl)phenoxy)-1′-(5-(1,1-difluoroethyl)-1,2,4-oxadiazol-3-yl)-[1,4′-bipiperidin]-2-one]
- cAMP production in HEK-293 cells: 17.3 nmol
- Fold over baseline: 3.7

SMILES: CS(=O)(=O)c1ccc(N[C@H]2CCN(C3CCN(c4noc(C(F)(F)F)n4)CC3)C2=O)cn1 [Example 57, (S)-3-((6-(methylsulfonyl)pyridin-3-yl)amino)-1-(1-(5-(trifluoromethyl)-1,2,4-oxadiazol-3-yl)piperidin-4-yl)pyrrolidin-2-one]
- cAMP production in HEK-293 cells: 27.2 nmol
- Fold over baseline: 3.7

SMILES: CC(F)(F)c1noc(N2CCC(N3CC[C@H](Oc4cc(F)c(S(C)(=O)=O)cc4F)C3=O)CC2)n1 [Example 63, (S)-3-(2,5-difluoro-4-(methylsulfonyl)phenoxy)-1-(1-(3-(1,1-difluoroethyl)-1,2,4-oxadiazol-5-yl)piperidin-4-yl)pyrrolidin-2-one]
- cAMP production in HEK-293 cells: 21.6 nmol
- Fold over baseline: 3.6

SMILES: CC(C)c1nc(N2CCC(N3CC[C@H](Oc4c(F)cc(S(C)(=O)=O)cc4F)C3=O)CC2)no1 [Example 20, (S)-3-(2,6-difluoro-4-(methylsulfonyl)phenoxy)-1-(1-(5-isopropyl-1,2,4-oxadiazol-3-yl)piperidin-4-yl)pyrrolidin-2-one]
- cAMP production in HEK-293 cells: 19.4 nmol
- Fold over baseline: 3.7

SMILES: CC(C)(C)c1noc(N2CCC(N3CC[C@H](Oc4cc(F)c(S(C)(=O)=O)cc4F)C3=O)CC2)n1 [Example 3, (S)-1-(1-(3-tert-butyl-1,2,4-oxadiazol-5-yl)piperidin-4-yl)-3-(2,5-difluoro-4-(methylsulfonyl)phenoxy)pyrrolidin-2-one]
- cAMP production in HEK-293 cells: 21.7 nmol
- Fold over baseline: 3.3

SMILES: CS(=O)(=O)c1cc(F)c(N[C@H]2CCN(C3CCN(c4nc(C(F)(F)F)no4)CC3)C2=O)c(F)c1 [Example 60, (S)-3-((2,6-difluoro-4-(methylsulfonyl)phenyl)amino)-1-(1-(3-(trifluoromethyl)-1,2,4-oxadiazol-5-yl)piperidin-4-yl)pyrrolidin-2-one]
- cAMP production in HEK-293 cells: 18.1 nmol
- Fold over baseline: 3.8

SMILES: CC(C)c1noc(N2CCC(N3CC[C@@H](Oc4cc(F)c(S(C)(=O)=O)cc4F)C3=O)CC2)n1 [Example 4, (R)-3-(2,5-difluoro-4-(methylsulfonyl)phenoxy)-1-(1-(3-isopropyl-1,2,4-oxadiazol-5-yl)piperidin-4-yl)pyrrolidin-2-one]
- cAMP production in HEK-293 cells: 18.7 nmol
- Fold over baseline: 3.9
